Experimental data reported in patent publication US7786127B2, “Benzimidazole thiophene compounds” (Glaxo SmithKline LLC, priority 2005, dated 2010).

Columns and labels:
Assay type in all cases: cell-based
[1] = test system: HCT116; test: Methylene blue growth inhibition assay, HCT116; conditions: Homo sapiens, HCT-116, 72 h
Protocol: (§1) Generally, exponentially growing cell lines of different tumor origins, cultured in appropriate media containing 10% fetal bovine serum at 37° C. in a 5% CO2 incubator were plated at low density (less than 2000 cells/well) in 96-well plates. Twenty four hours post-plating, cells were treated with different concentrations of test compounds ranging from 10 uM to 0.04 nM. Several wells were left untreated as a control. Seventy two hours post-treatment, cell numbers were determined using 10 μl per well of methylene blue (Sigma M9140) (0.5% in 50:50 Ethanol:water). […] Plates were read on a microplate reader, measuring the OD at 620 nm. […]
(§2) In one assay, normal human foreskin fibroblasts (HFF), human colon (HCT116, RKO), lung (H460, A549) and breast (MCF7) tumor cell lines were cultured in high glucose DMEM (Life Technologies) containing 10% fetal bovine serum (FBS) at 37° C. in a humidified 5% CO2, 95% air incubator. Cells were harvested using trypsin/EDTA, counted using a haemocytometer, and plated in 100 μL of culture media per well, at the following densities, in a 96-well tissue culture plate (Falcon 3075): HFF 5,000 cells/well, HCT116 3,000 cells/well, RKO 2,500 cells/well, H460 2,500 cells/well, A549 5,000 cells/well, MCF7 4,000 cells/well. […] Optical density at 620 nm was measured on a microplate reader. […]

[2] = test system: normal human foreskin fibroblasts (HFF); test: Methylene blue growth inhibition assay, HFF; conditions: Fibroblast, 72 h
Protocol: as §1, §2

[3] = test system: A549; test: Methylene blue growth inhibition assay, A549; conditions: Homo sapiens, 72 h
Protocol: as §1, §2

[4] = test system: RKO; test: Methylene blue growth inhibition assay, RKO; conditions: Homo sapiens, 72 h
Protocol: as §1, §2

[5] = test system: H460; test: Methylene blue growth inhibition assay, H460; conditions: Homo sapiens, NCI-H460, 72 h
Protocol: as §1, §2

[6] = test system: MCF7; test: Methylene blue growth inhibition assay, MCF7; conditions: Homo sapiens, 72 h
Protocol: as §1, §2

C[C@@H](Oc1cc(-n2cnc3ccc(OC4CCN(C)CC4)cc32)sc1C(N)=O)c1ccccc1Cl [Example 8, 3-{[(1R)-1-(2-Chlorophenyl)ethyl]oxy}-5-{6-[(1-methyl-4-piperidinyl)oxy]-1H-benzimidazol-1-yl}-2-thiophenecarboxamide]
IC50 [1]: < 0.1 µM
IC50 [2]: < 0.1 µM
IC50 [3]: < 0.1 µM
IC50 [4]: < 0.1 µM
IC50 [5]: < 0.1 µM

C[C@@H](Oc1cc(-n2cnc3ccc(OC4CCN(C)CC4)cc32)sc1C(N)=O)c1ccccc1C(F)(F)F [Example 7, 5-{6-[(1-Methyl-4-piperidinyl)oxy]-1H-benzimidazol-1-yl}-3-({(1R)-1-[2-(trifluoromethyl)phenyl]ethyl}oxy)-2-thiophenecarboxamide]
IC50 [6]: < 0.1 µM
IC50 [1]: < 0.1 µM
IC50 [2]: 0.1 to 1 µM
IC50 [3]: < 0.1 µM
IC50 [4]: < 0.1 µM
IC50 [5]: < 0.1 µM
